According to PubChem BioAssay AID248 (DTP/NCI, 2004):
Where “and” joins values, the source holds several entries; their conditions need not be identical. Identical values can stand only once. Toxic doses and inconclusive results are not listed. Cut-off read from the data, not from the text of the source: active = T/C of 150% or more; inactive = T/C below 125%.

Test system: L1210 leukemia ip in BDF1 mice, survival T/C
Test: NCI In Vivo Anticancer Drug Screen. Data for tumor model L1210 Leukemia (intraperitoneal) in B6D2F1 (BDF1) mice
Settings: endpoint: mean survival time, higher = longer survival
Summary of the method: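 Tumor cells were implanted, animals were treated, and survival was followed. The result divides the treated measurement by the vehicle-control measurement.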

[1] = dose: 50.0 mg/kg/injection, schedule: Q01DX001 (ip), vehicle: carboxymethylcellulose (CMC)
[2] = dose: 100.0 mg/kg/injection, schedule: Q01DX001 (ip), vehicle: carboxymethylcellulose (CMC)
[3] = dose: 100.0 mg/kg/injection, schedule: Q01DX001 (ip), vehicle: saline
[4] = dose: 200.0 mg/kg/injection, schedule: Q01DX001 (ip), vehicle: carboxymethylcellulose (CMC)
[5] = dose: 200.0 mg/kg/injection, schedule: Q01DX001 (ip), vehicle: saline
[6] = dose: 400.0 mg/kg/injection, schedule: Q01DX001 (ip), vehicle: carboxymethylcellulose (CMC)
[7] = dose: 400.0 mg/kg/injection, schedule: Q01DX001 (ip), vehicle: saline
[8] = dose: 100.0 mg/kg/injection, schedule: Q04DX002 (ip), vehicle: Klucel (hydroxypropylcellulose) (HPC)
[9] = dose: 200.0 mg/kg/injection, schedule: Q04DX002 (ip), vehicle: Klucel (hydroxypropylcellulose) (HPC)
[10] = dose: 400.0 mg/kg/injection, schedule: Q04DX002 (ip), vehicle: Klucel (hydroxypropylcellulose) (HPC)
[11] = dose: 100.0 mg/kg/injection, schedule: Q01DX009 (ip), vehicle: Klucel (hydroxypropylcellulose) (HPC)
[12] = dose: 200.0 mg/kg/injection, schedule: Q01DX009 (ip), vehicle: Klucel (hydroxypropylcellulose) (HPC)
[13] = dose: 400.0 mg/kg/injection, schedule: Q01DX009 (ip), vehicle: Klucel (hydroxypropylcellulose) (HPC)
[14] = dose: 100.0 mg/kg/injection, schedule: Q04DX002 (ip), vehicle: saline with Tween-80
[15] = dose: 200.0 mg/kg/injection, schedule: Q04DX002 (ip), vehicle: saline with Tween-80
[16] = dose: 50.0 mg/kg/injection, schedule: Q01DX001 (ip), vehicle: saline
[17] = dose: 100.0 mg/kg/injection, schedule: Q01DX009 (ip), vehicle: saline with Tween-80
[18] = dose: 100.0 mg/kg/injection, schedule: Q04DX003 (ip), vehicle: saline with Tween-80
[19] = dose: 200.0 mg/kg/injection, schedule: Q01DX009 (ip), vehicle: saline with Tween-80
[20] = dose: 400.0 mg/kg/injection, schedule: Q01DX009 (ip), vehicle: saline with Tween-80
[21] = dose: 75.0 mg/kg/injection, schedule: Q01DX001 (ip), vehicle: saline
[22] = dose: 100.0 mg/kg/injection, schedule: Q04DX003 (ip), vehicle: Klucel (hydroxypropylcellulose) (HPC)
[23] = dose: 200.0 mg/kg/injection, schedule: Q04DX003 (ip), vehicle: Klucel (hydroxypropylcellulose) (HPC)
[24] = dose: 400.0 mg/kg/injection, schedule: Q04DX003 (ip), vehicle: Klucel (hydroxypropylcellulose) (HPC)

Measured: T/C

CCOC(=O)C(C)C(=O)c1ccccc1 (stereo not given)
inactive: [1] 107 % of control | [2] 102 % of control | [3] 95 % of control | dose: 100.0 mg/kg/injection, schedule: Q01DX009 (ip), vehicle: acetone 96 % of control | [4] 107 % of control | [5] 94 % of control | dose: 200.0 mg/kg/injection, schedule: Q01DX009 (ip), vehicle: acetone 93 % of control | [6] 107 % of control | [7] 94 % of control | dose: 400.0 mg/kg/injection, schedule: Q01DX009 (ip), vehicle: acetone 98 % of control

O=C(c1ccc(Cl)cc1)N1CCC(CCCc2ccccc2)CC1
inactive: [8] 96 % of control | [9] 99 % of control | [10] 96 % of control

O=C(Nc1ccccc1F)C(Br)C(Br)c1ccccc1 (stereo not given)
inactive: [11] 92 % of control | [12] 100 % of control | [13] 96 % of control

CN(C)c1ccc(C=NCCCO)cc1
inactive: [14] 92 % of control | [15] 103 % of control

CCOCCOCCOC(C)Oc1ccc(Cl)cc1Cl (stereo not given)
inactive: [14] 97 % of control | [15] 94 % of control | dose: 400.0 mg/kg/injection, schedule: Q04DX002 (ip), vehicle: saline with Tween-80 100 % of control

CCOC(=O)NP(=O)(NC(=O)OCC)NC(=O)OCC
inactive: [16] 106 % of control | [3] 104 % of control | [5] 93 % of control | [7] 106 % of control

CCCCC/C=C/C/C=C/CCCCCCCC(=O)N1CCOCC1
inactive: dose: 100.0 mg/kg/injection, schedule: Q01DX001 (ip), vehicle: saline with Tween-80 94 % of control | dose: 200.0 mg/kg/injection, schedule: Q01DX001 (ip), vehicle: saline with Tween-80 96 % of control | dose: 400.0 mg/kg/injection, schedule: Q01DX001 (ip), vehicle: saline with Tween-80 97 % of control

CC(C)=C1N=C(c2ccccc2)OC1=O
inactive: [8] 97 % of control | [9] 111 % of control | [10] 111 % of control

OC1(C#CC2(O)CCCC2)CCCC1
inactive: [1] 98 % of control | [2] 95 % of control | [4] 87 % of control | [6] 93 % of control

O=C(O)C1Cc2c([nH]c3ccccc23)C(c2ccccc2)N1 (stereo not given)
inactive: [17] 96 % of control | [18] 104 % of control | [19] 94 % of control | dose: 200.0 mg/kg/injection, schedule: Q04DX003 (ip), vehicle: saline with Tween-80 102 % of control | [20] 97 % of control | dose: 400.0 mg/kg/injection, schedule: Q04DX003 (ip), vehicle: saline with Tween-80 96 % of control

c1ccc2c[n+](Cc3nc4ccccc4[nH]3)ccc2c1
inactive: [21] 101 % of control

CCC1(Cc2ccsc2)C(=O)NC(=O)NC1=O
inactive: [2] 103 % of control | [4] 94 % of control | [6] 100 % of control

CC1=NN(c2ccccc2)C(=O)C1(Br)Br
inactive: [18] 96 % of control

CCOC(=O)c1cnc(C)nc1Nc1ccccc1
inactive: [22] 97 % of control | [23] 103 % of control | [24] 108 % of control

CC(C)=C1C2CCC1C(COS(=O)(=O)c1ccc(C)cc1)C2COS(=O)(=O)c1ccc(C)cc1 (stereo not given)
inactive: [11] 96 % of control | [22] 98 % of control | [12] 100 % of control | [23] 104 % of control | [13] 94 % of control | [24] 102 % of control

CSc1ncnc2nncnc12
inactive: dose: 5.0 mg/kg/injection, schedule: Q01DX001 (ip), vehicle: other 104 % of control | dose: 10.0 mg/kg/injection, schedule: Q01DX001 (ip), vehicle: other 106 % of control | dose: 20.0 mg/kg/injection, schedule: Q01DX001 (ip), vehicle: other 101 % of control | dose: 40.0 mg/kg/injection, schedule: Q01DX001 (ip), vehicle: other 98 % of control

CNc1ccccc1C=O
inactive: [3] 94 % of control | [5] 97 % of control | [7] 100 % of control

CSc1nc(N)n(C)n1
inactive: dose: 100.0 mg/kg/injection, schedule: Q04DX002 (ip), vehicle: saline 123 % of control | dose: 200.0 mg/kg/injection, schedule: Q04DX002 (ip), vehicle: saline 104 % of control | dose: 400.0 mg/kg/injection, schedule: Q04DX002 (ip), vehicle: saline 93 % of control

CCCCCCCCCCCCCCCC[N+]1(Cc2ccccc2)CCOCC1
inactive: dose: 50.0 mg/kg/injection, schedule: Q01DX009 (ip), vehicle: Klucel (hydroxypropylcellulose) (HPC) 99 % of control | [11] 99 % of control

C=C1C(=O)OC2/C=C(/CO)C3OC3C3OC3(C)CC(OC(=O)/C(C)=C\COC(C)=O)C12 (stereo not given)
inactive: dose: 25.0 mg/kg/injection, schedule: Q04DX003 (ip), vehicle: Klucel (hydroxypropylcellulose) (HPC) 98 % of control | dose: 50.0 mg/kg/injection, schedule: Q04DX003 (ip), vehicle: Klucel (hydroxypropylcellulose) (HPC) 104 % of control | [22] 94 % of control and 89 % of control

CCn1c(C)cc(O)cc1=O
inactive: [17] 94 % of control | [19] 92 % of control | [20] 94 % of control

OCCN(CCO)Cc1cc(Cl)c2cccnc2c1O
inactive: [21] 102 % of control | dose: 150.0 mg/kg/injection, schedule: Q01DX001 (ip), vehicle: saline 104 % of control

CCCCCCCCCC(Br)C(C)(C)COO (stereo not given)
inactive: dose: 50.0 mg/kg/injection, schedule: Q01DX001 (ip), vehicle: water 97 % of control | dose: 100.0 mg/kg/injection, schedule: Q01DX001 (ip), vehicle: water 101 % of control | dose: 200.0 mg/kg/injection, schedule: Q01DX001 (ip), vehicle: water 102 % of control

CCN1c2c(nc(N)[nH]c2=O)NCC1CNc1ccc(C(=O)NC(CCC(=O)O)C(=O)O)cc1 (stereo not given)
inactive: dose: 100.0 mg/kg/injection, schedule: Q01DX009 (ip), vehicle: saline 103 % of control | dose: 100.0 mg/kg/injection, schedule: Q04DX003 (ip), vehicle: saline 108 % of control | dose: 200.0 mg/kg/injection, schedule: Q01DX009 (ip), vehicle: saline 115 % of control | dose: 200.0 mg/kg/injection, schedule: Q04DX003 (ip), vehicle: saline 104 % of control | dose: 400.0 mg/kg/injection, schedule: Q01DX009 (ip), vehicle: saline 94 % of control | dose: 400.0 mg/kg/injection, schedule: Q04DX003 (ip), vehicle: saline 103 % of control

C=C(C)C(=O)Nc1c(C)cccc1C
inactive: [22] 105 % of control | [23] 94 % of control

[O-][N+](CCO)(CCO)Cc1ccccc1
inactive: [16] 103 % of control | [3] 103 % of control | [5] 103 % of control | [7] 101 % of control
